Reference: ChEMBL document CHEMBL1141655, “Structure-activity relationships of Bak derived peptides: affinity and specificity modulations by amino acid replacement” (Eur J Med Chem, 2008)
Non-standard residues stand in square brackets, D forms with d. Residues, ends and D or L forms follow the SMILES beside them. Phe(4-Cl) = N[C@@H](Cc1ccc(Cl)cc1)C(=O)O; 2Nal = N[C@@H](Cc1ccc2ccccc2c1)C(=O)O

What follows are molecules tested against Bcl-2-like protein 1 (Homo sapiens, UniProt Q07817) (assay: Binding affinity to recombinant Bcl-XL expressed in Escherichia coli BL21 by fluorescence polarization assay).
Chain of Bcl-2-like protein 1 (Q07817 whole entry): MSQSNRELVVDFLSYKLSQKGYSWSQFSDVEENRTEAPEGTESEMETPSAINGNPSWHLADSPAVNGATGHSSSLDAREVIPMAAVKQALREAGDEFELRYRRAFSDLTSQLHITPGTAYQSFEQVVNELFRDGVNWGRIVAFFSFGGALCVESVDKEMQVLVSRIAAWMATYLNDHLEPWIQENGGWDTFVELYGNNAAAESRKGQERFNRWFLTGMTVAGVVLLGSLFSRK

| SMILES | EC50 [nM] |
| --- | --- |
| CC[C@H](C)[C@H](NC(=O)[C@H](C)NC(=O)[C@H](CC(C)C)NC(=O)[C@H](CCC(N)=O)NC(=O)[C@H](CCCN=C(N)N)NC(=O)CNC(=O)[C@@H](NC(=O)[C@H](CCC(N)=O)NC(=O)CN)C(C)C)C(=O)N[C@H](C(=O)NCC(=O)N[C@@H](CC(=O)O)C(=O)N[C@@H](CC(=O)O)C(=O)N[C@@H](Cc1cccc2ccccc12)C(=O)N[C@@H](CC(N)=O)C(=O)N[C@@H](CCCN=C(N)N)C(=O)O)[C@@H](C)CC | 77 |
| CC[C@H](C)[C@H](NC(=O)[C@H](C)NC(=O)[C@H](CC1CCCCC1)NC(=O)[C@H](CCC(N)=O)NC(=O)[C@H](CCCNC(=N)N)NC(=O)CNC(=O)[C@@H](NC(=O)[C@H](CCC(N)=O)NC(=O)CN)C(C)C)C(=O)N[C@H](C(=O)NCC(=O)N[C@@H](CC(=O)O)C(=O)N[C@@H](CC(=O)O)C(=O)N[C@H](C(=O)N[C@@H](CC(N)=O)C(=O)N[C@@H](CCCNC(=N)N)C(=O)O)[C@@H](C)CC)[C@@H](C)CC | 219 |
| CC[C@H](C)[C@H](NC(=O)[C@H](C)NC(=O)[C@H](CC(C)C)NC(=O)[C@H](CCC(N)=O)NC(=O)[C@H](CCCNC(=N)N)NC(=O)CNC(=O)[C@@H](NC(=O)[C@H](CCC(N)=O)NC(=O)CN)C(C)C)C(=O)N[C@H](C(=O)NCC(=O)N[C@@H](CC(=O)O)C(=O)N[C@@H](CC(=O)O)C(=O)N[C@@H](Cc1cccc(Cl)c1)C(=O)N[C@@H](CC(N)=O)C(=O)N[C@@H](CCCNC(=N)N)C(=O)O)[C@@H](C)CC | 56 |
| CC[C@H](C)[C@H](NC(=O)[C@H](C)NC(=O)[C@H](CC(C)C)NC(=O)[C@H](CCC(N)=O)NC(=O)[C@H](CCCN=C(N)N)NC(=O)CNC(=O)[C@@H](NC(=O)[C@H](CCC(N)=O)NC(=O)CN)C(C)C)C(=O)N[C@@H](Cc1cccc(Cl)c1)C(=O)NCC(=O)N[C@@H](CC(=O)O)C(=O)N[C@@H](CC(=O)O)C(=O)N[C@H](C(=O)N[C@@H](CC(N)=O)C(=O)N[C@@H](CCCN=C(N)N)C(=O)O)[C@@H](C)CC | 200 |
| CC[C@H](C)[C@H](NC(=O)[C@H](C)NC(=O)[C@H](Cc1cccc2ccccc12)NC(=O)[C@H](CCC(N)=O)NC(=O)[C@H](CCCNC(=N)N)NC(=O)CNC(=O)[C@@H](NC(=O)[C@H](CCC(N)=O)NC(=O)CN)C(C)C)C(=O)N[C@H](C(=O)NCC(=O)N[C@@H](CC(=O)O)C(=O)N[C@@H](CC(=O)O)C(=O)N[C@H](C(=O)N[C@@H](CC(N)=O)C(=O)N[C@@H](CCCNC(=N)N)C(=O)O)[C@@H](C)CC)[C@@H](C)CC | > 10000 |
| CC[C@H](C)[C@H](NC(=O)[C@H](C)NC(=O)[C@H](Cc1cccc(Cl)c1)NC(=O)[C@H](CCC(N)=O)NC(=O)[C@H](CCCN=C(N)N)NC(=O)CNC(=O)[C@@H](NC(=O)[C@H](CCC(N)=O)NC(=O)CN)C(C)C)C(=O)N[C@H](C(=O)NCC(=O)N[C@@H](CC(=O)O)C(=O)N[C@@H](CC(=O)O)C(=O)N[C@H](C(=O)N[C@@H](CC(N)=O)C(=O)N[C@@H](CCCN=C(N)N)C(=O)O)[C@@H](C)CC)[C@@H](C)CC | 359 |
| CC[C@H](C)[C@H](NC(=O)[C@H](C)NC(=O)[C@H](CC(C)C)NC(=O)[C@H](CCC(N)=O)NC(=O)[C@H](CCCNC(=N)N)NC(=O)CNC(=O)[C@@H](NC(=O)[C@H](CCC(N)=O)NC(=O)CN)C(C)C)C(=O)N[C@@H](Cc1ccc([N+](=O)[O-])cc1)C(=O)NCC(=O)N[C@@H](CC(=O)O)C(=O)N[C@@H](CC(=O)O)C(=O)N[C@H](C(=O)N[C@@H](CC(N)=O)C(=O)N[C@@H](CCCNC(=N)N)C(=O)O)[C@@H](C)CC | 1470 |
| CC[C@H](C)[C@H](NC(=O)[C@H](C)NC(=O)[C@H](CCc1ccccc1)NC(=O)[C@H](CCC(N)=O)NC(=O)[C@H](CCCNC(=N)N)NC(=O)CNC(=O)[C@@H](NC(=O)[C@H](CCC(N)=O)NC(=O)CN)C(C)C)C(=O)N[C@H](C(=O)NCC(=O)N[C@@H](CC(=O)O)C(=O)N[C@@H](CC(=O)O)C(=O)N[C@H](C(=O)N[C@@H](CC(N)=O)C(=O)N[C@@H](CCCNC(=N)N)C(=O)O)[C@@H](C)CC)[C@@H](C)CC | 225 |
| CC[C@H](C)[C@H](NC(=O)[C@H](C)NC(=O)[C@H](Cc1ccc2ccccc2c1)NC(=O)[C@H](CCC(N)=O)NC(=O)[C@H](CCCNC(=N)N)NC(=O)CNC(=O)[C@@H](NC(=O)[C@H](CCC(N)=O)NC(=O)CN)C(C)C)C(=O)N[C@H](C(=O)NCC(=O)N[C@@H](CC(=O)O)C(=O)N[C@@H](CC(=O)O)C(=O)N[C@@H](Cc1ccc(Cl)cc1)C(=O)N[C@@H](CC(N)=O)C(=O)N[C@@H](CCCNC(=N)N)C(=O)O)[C@@H](C)CC (H-GQVGRQ[2Nal]AIIGDD[Phe(4-Cl)]NR-OH) | 53 |
| CC[C@H](C)[C@H](NC(=O)[C@H](C)NC(=O)[C@H](CC(C)C)NC(=O)[C@H](CCC(N)=O)NC(=O)[C@H](CCCN=C(N)N)NC(=O)CNC(=O)[C@@H](NC(=O)[C@H](CCC(N)=O)NC(=O)CN)C(C)C)C(=O)N[C@H](C(=O)NCC(=O)N[C@@H](CC(=O)O)C(=O)N[C@@H](CC(=O)O)C(=O)N[C@@H](Cc1ccccc1)C(=O)N[C@@H](CC(N)=O)C(=O)N[C@@H](CCCN=C(N)N)C(=O)O)[C@@H](C)CC | 54 |
| CC[C@H](C)[C@H](NC(=O)[C@H](C)NC(=O)[C@H](CC(C)C)NC(=O)[C@H](CCC(N)=O)NC(=O)[C@H](CCCNC(=N)N)NC(=O)CNC(=O)[C@H](C)NC(=O)[C@H](CCC(N)=O)NC(=O)CN)C(=O)N[C@H](C(=O)NCC(=O)N[C@@H](CC(=O)O)C(=O)N[C@@H](CC(=O)O)C(=O)N[C@H](C(=O)N[C@@H](CC(N)=O)C(=O)N[C@@H](CCCNC(=N)N)C(=O)O)[C@@H](C)CC)[C@@H](C)CC | 15000 |
| CC[C@H](C)[C@H](NC(=O)[C@H](C)NC(=O)[C@H](CC(C)C)NC(=O)[C@H](CCC(N)=O)NC(=O)[C@H](CCCNC(=N)N)NC(=O)CNC(=O)[C@@H](NC(=O)[C@H](CCC(N)=O)NC(=O)CN)C(C)C)C(=O)N[C@H](C(=O)NCC(=O)N[C@@H](CC(=O)O)C(=O)N[C@@H](CC(=O)O)C(=O)N[C@@H](Cc1ccc(-c2ccccc2)cc1)C(=O)N[C@@H](CC(N)=O)C(=O)N[C@@H](CCCNC(=N)N)C(=O)O)[C@@H](C)CC | 267 |
| CC[C@H](C)[C@H](NC(=O)[C@H](C)NC(=O)[C@H](CC(C)C)NC(=O)[C@H](CCC(N)=O)NC(=O)[C@H](CCCN=C(N)N)NC(=O)CNC(=O)[C@@H](NC(=O)[C@H](CCC(N)=O)NC(=O)CN)C(C)C)C(=O)N[C@@H](Cc1ccc2ccccc2c1)C(=O)NCC(=O)N[C@@H](CC(=O)O)C(=O)N[C@@H](CC(=O)O)C(=O)N[C@H](C(=O)N[C@@H](CC(N)=O)C(=O)N[C@@H](CCCN=C(N)N)C(=O)O)[C@@H](C)CC | 1300 |
| CC[C@H](C)[C@H](NC(=O)[C@H](C)NC(=O)[C@H](CC(C)C)NC(=O)[C@H](CCC(N)=O)NC(=O)[C@H](CCCNC(=N)N)NC(=O)CNC(=O)[C@@H](NC(=O)[C@H](CCC(N)=O)NC(=O)CN)C(C)C)C(=O)N[C@H](C(=O)NCC(=O)N[C@@H](CC(=O)O)C(=O)N[C@@H](CC(=O)O)C(=O)N[C@@H](CC1CCCCC1)C(=O)N[C@@H](CC(N)=O)C(=O)N[C@@H](CCCNC(=N)N)C(=O)O)[C@@H](C)CC | 58 |
| CC[C@H](C)[C@H](NC(=O)[C@H](C)NC(=O)[C@H](CC(C)C)NC(=O)[C@H](CCC(N)=O)NC(=O)[C@H](CCCN=C(N)N)NC(=O)CNC(=O)[C@H](Cc1ccccc1)NC(=O)[C@H](CCC(N)=O)NC(=O)CN)C(=O)N[C@H](C(=O)NCC(=O)N[C@@H](CC(=O)O)C(=O)N[C@@H](CC(=O)O)C(=O)N[C@H](C(=O)N[C@@H](CC(N)=O)C(=O)N[C@@H](CCCN=C(N)N)C(=O)O)[C@@H](C)CC)[C@@H](C)CC | 304 |
| CCCC[C@H](NC(=O)[C@H](CC(=O)O)NC(=O)[C@H](CC(=O)O)NC(=O)CNC(=O)[C@@H](NC(=O)[C@@H](NC(=O)[C@H](C)NC(=O)[C@H](CC(C)C)NC(=O)[C@H](CCC(N)=O)NC(=O)[C@H](CCCN=C(N)N)NC(=O)CNC(=O)[C@@H](NC(=O)[C@H](CCC(N)=O)NC(=O)CN)C(C)C)[C@@H](C)CC)[C@@H](C)CC)C(=O)N[C@@H](CC(N)=O)C(=O)N[C@@H](CCCN=C(N)N)C(=O)O | 118 |
| CCCC[C@H](NC(=O)[C@@H](NC(=O)[C@H](C)NC(=O)[C@H](CC(C)C)NC(=O)[C@H](CCC(N)=O)NC(=O)[C@H](CCCN=C(N)N)NC(=O)CNC(=O)[C@@H](NC(=O)[C@H](CCC(N)=O)NC(=O)CN)C(C)C)[C@@H](C)CC)C(=O)NCC(=O)N[C@@H](CC(=O)O)C(=O)N[C@@H](CC(=O)O)C(=O)N[C@H](C(=O)N[C@@H](CC(N)=O)C(=O)N[C@@H](CCCN=C(N)N)C(=O)O)[C@@H](C)CC | 655 |
| CC[C@H](C)[C@H](NC(=O)[C@H](C)NC(=O)[C@H](CC(C)C)NC(=O)[C@H](CCC(N)=O)NC(=O)[C@H](CCCNC(=N)N)NC(=O)CNC(=O)[C@@H](NC(=O)[C@H](CCC(N)=O)NC(=O)CN)C(C)C)C(=O)N[C@H](C(=O)NCC(=O)N[C@@H](CC(=O)O)C(=O)N[C@@H](CC(=O)O)C(=O)N[C@@H](CCC(=O)O)C(=O)N[C@@H](CC(N)=O)C(=O)N[C@@H](CCCNC(=N)N)C(=O)O)[C@@H](C)CC | > 10000 |
| CC[C@H](C)[C@H](NC(=O)[C@H](C)NC(=O)[C@H](CC(C)C)NC(=O)[C@H](CCC(N)=O)NC(=O)[C@H](CCCN=C(N)N)NC(=O)CNC(=O)[C@@H](NC(=O)[C@H](CCC(N)=O)NC(=O)CN)C(C)C)C(=O)N[C@H](C(=O)NCC(=O)N[C@@H](CC(=O)O)C(=O)N[C@@H](CC(=O)O)C(=O)N[C@@H](Cc1ccc(O)cc1)C(=O)N[C@@H](CC(N)=O)C(=O)N[C@@H](CCCN=C(N)N)C(=O)O)[C@@H](C)CC | 159 |
| CC[C@H](C)[C@H](NC(=O)[C@H](C)NC(=O)[C@H](CC(C)C)NC(=O)[C@H](CCC(N)=O)NC(=O)[C@H](CCCN=C(N)N)NC(=O)CNC(=O)[C@@H](NC(=O)[C@H](CCC(N)=O)NC(=O)CN)C(C)C)C(=O)N[C@H](C(=O)NCC(=O)N[C@@H](CC(=O)O)C(=O)N[C@@H](CC(=O)O)C(=O)N[C@@H](Cc1ccc2ccccc2c1)C(=O)N[C@@H](CC(N)=O)C(=O)N[C@@H](CCCN=C(N)N)C(=O)O)[C@@H](C)CC | 125 |
| CC[C@H](C)[C@H](NC(=O)[C@H](C)NC(=O)[C@H](Cc1cccnc1)NC(=O)[C@H](CCC(N)=O)NC(=O)[C@H](CCCN=C(N)N)NC(=O)CNC(=O)[C@@H](NC(=O)[C@H](CCC(N)=O)NC(=O)CN)C(C)C)C(=O)N[C@H](C(=O)NCC(=O)N[C@@H](CC(=O)O)C(=O)N[C@@H](CC(=O)O)C(=O)N[C@H](C(=O)N[C@@H](CC(N)=O)C(=O)N[C@@H](CCCN=C(N)N)C(=O)O)[C@@H](C)CC)[C@@H](C)CC | 9740 |
